{"source": "patent US9221746B2", "about": "“Homo- and hetero-polyamino-acid derivatives of fullerene C60, method for producing same, and pharmaceutical compositions based on said derivatives” (priority 2011, dated 2015)", "tested_on": "A/Aichi/2/69 (H3N2) influenza virus", "experiment": "Induced influenza pneumonia in mice", "key": {"[1]": {"settings": "LD70, intramuscularly 50 mg/kg/day"}, "[2]": {"settings": "LD70, intramuscularly 100 mg/kg/day"}, "[3]": {"settings": "LD70, intramuscularly 200 mg/kg/day"}, "[4]": {"settings": "LD70, intraperitoneally 50 mg/kg/day"}, "[5]": {"settings": "LD70, intraperitoneally 100 mg/kg/day"}}, "data": [{"substance": "Fullerene Poly(Aminocaproic Acid) of Formula C60(H3){NH(CH2)5COO—}3{NH3^+(CH2)5COOH}3 [Agent No. 1]", "values": [{"measurement": "Average lifetime (days)", "setting": "[1]", "result": "13.3 (1-7 d., 1-8 d.) days"}, {"measurement": "Percent death protection (%)", "setting": "[1]", "result": 50, "unit": "%"}, {"measurement": "Percent body weight change in days post infection", "setting": "LD70, intramuscularly 50 mg/kg/day, day 1", "result": "+20%"}, {"measurement": "Percent body weight change in days post infection", "setting": "LD70, intramuscularly 50 mg/kg/day, day 2", "result": "+22%"}, {"measurement": "Percent body weight change in days post infection", "setting": "LD70, intramuscularly 50 mg/kg/day, day 3", "result": "+22%"}, {"measurement": "Percent body weight change in days post infection", "setting": "LD70, intramuscularly 50 mg/kg/day, day 4", "result": "+17%"}, {"measurement": "Percent body weight change in days post infection", "setting": "LD70, intramuscularly 50 mg/kg/day, day 5", "result": "+11%"}, {"measurement": "Percent body weight change in days post infection", "setting": "LD70, intramuscularly 50 mg/kg/day, day 7", "result": "+9%"}, {"measurement": "Percent body weight change in days post infection", "setting": "LD70, intramuscularly 50 mg/kg/day, day 9", "result": "+11%"}, {"measurement": "Percent body weight change in days post infection", "setting": "LD70, intramuscularly 50 mg/kg/day, day 11", "result": "+19%"}, {"measurement": "Percent body weight change in days post infection", "setting": "LD70, intramuscularly 50 mg/kg/day, day 13", "result": "+26%"}, {"measurement": "Percent death protection (%)", "setting": "[2]", "result": 70, "unit": "%"}, {"measurement": "average lifetime", "setting": "[2]", "result": ">16", "unit": "days"}, {"measurement": "Percent body weight change in days post infection", "setting": "LD70, intramuscularly 100 mg/kg/day, day 1", "result": "+21%"}, {"measurement": "Percent body weight change in days post infection", "setting": "LD70, intramuscularly 100 mg/kg/day, day 2", "result": "+25%"}, {"measurement": "Percent body weight change in days post infection", "setting": "LD70, intramuscularly 100 mg/kg/day, day 3", "result": "+27%"}, {"measurement": "Percent body weight change in days post infection", "setting": "LD70, intramuscularly 100 mg/kg/day, day 4", "result": "+23%"}, {"measurement": "Percent body weight change in days post infection", "setting": "LD70, intramuscularly 100 mg/kg/day, day 5", "result": "+20%"}, {"measurement": "Percent body weight change in days post infection", "setting": "LD70, intramuscularly 100 mg/kg/day, day 7", "result": "+21.5%"}, {"measurement": "Percent body weight change in days post infection", "setting": "LD70, intramuscularly 100 mg/kg/day, day 9", "result": "+32%"}, {"measurement": "Percent body weight change in days post infection", "setting": "LD70, intramuscularly 100 mg/kg/day, day 11", "result": "+35.5%"}, {"measurement": "Percent body weight change in days post infection", "setting": "LD70, intramuscularly 100 mg/kg/day, day 13", "result": "+38%"}, {"measurement": "Average lifetime (days)", "setting": "[3]", "result": "13.8 (1-7 d., 1-13 d.) days"}, {"measurement": "Percent death protection (%)", "setting": "[3]", "result": 50, "unit": "%"}, {"measurement": "Percent body weight change in days post infection", "setting": "LD70, intramuscularly 200 mg/kg/day, day 1", "result": "+25%"}, {"measurement": "Percent body weight change in days post infection", "setting": "LD70, intramuscularly 200 mg/kg/day, day 2", "result": "+27%"}, {"measurement": "Percent body weight change in days post infection", "setting": "LD70, intramuscularly 200 mg/kg/day, day 3", "result": "+28%"}, {"measurement": "Percent body weight change in days post infection", "setting": "LD70, intramuscularly 200 mg/kg/day, day 4", "result": "+24%"}, {"measurement": "Percent body weight change in days post infection", "setting": "LD70, intramuscularly 200 mg/kg/day, day 5", "result": "+20%"}, {"measurement": "Percent body weight change in days post infection", "setting": "LD70, intramuscularly 200 mg/kg/day, day 7", "result": "+23%"}, {"measurement": "Percent body weight change in days post infection", "setting": "LD70, intramuscularly 200 mg/kg/day, day 9", "result": "+22%"}, {"measurement": "Percent body weight change in days post infection", "setting": "LD70, intramuscularly 200 mg/kg/day, day 11", "result": "+25%"}, {"measurement": "Percent body weight change in days post infection", "setting": "LD70, intramuscularly 200 mg/kg/day, day 13", "result": "+36.5%"}, {"measurement": "Average lifetime (days)", "setting": "[4]", "result": "13.4 (2-8 d.) days"}, {"measurement": "Percent death protection (%)", "setting": "[4]", "result": 50, "unit": "%"}, {"measurement": "Percent body weight change in days post infection", "setting": "LD70, intraperitoneally 50 mg/kg/day, day 1", "result": "+21%"}, {"measurement": "Percent body weight change in days post infection", "setting": "LD70, intraperitoneally 50 mg/kg/day, day 2", "result": "+27%"}, {"measurement": "Percent body weight change in days post infection", "setting": "LD70, intraperitoneally 50 mg/kg/day, day 3", "result": "+29%"}, {"measurement": "Percent body weight change in days post infection", "setting": "LD70, intraperitoneally 50 mg/kg/day, day 4", "result": "+21%"}, {"measurement": "Percent body weight change in days post infection", "setting": "LD70, intraperitoneally 50 mg/kg/day, day 5", "result": "+16%"}, {"measurement": "Percent body weight change in days post infection", "setting": "LD70, intraperitoneally 50 mg/kg/day, day 7", "result": "+15%"}, {"measurement": "Percent body weight change in days post infection", "setting": "LD70, intraperitoneally 50 mg/kg/day, day 9", "result": "+31%"}, {"measurement": "Percent body weight change in days post infection", "setting": "LD70, intraperitoneally 50 mg/kg/day, day 11", "result": "+36%"}, {"measurement": "Percent body weight change in days post infection", "setting": "LD70, intraperitoneally 50 mg/kg/day, day 13", "result": "+40%"}, {"measurement": "Average lifetime (days)", "setting": "[5]", "result": "13.7 (1-3 d.) days"}, {"measurement": "Percent death protection (%)", "setting": "[5]", "result": 60, "unit": "%"}, {"measurement": "Percent body weight change in days post infection", "setting": "LD70, intraperitoneally 100 mg/kg/day, day 1", "result": "+19%"}, {"measurement": "Percent body weight change in days post infection", "setting": "LD70, intraperitoneally 100 mg/kg/day, day 2", "result": "+23%"}, {"measurement": "Percent body weight change in days post infection", "setting": "LD70, intraperitoneally 100 mg/kg/day, day 3", "result": "+22%"}, {"measurement": "Percent body weight change in days post infection", "setting": "LD70, intraperitoneally 100 mg/kg/day, day 4", "result": "+18%"}, {"measurement": "Percent body weight change in days post infection", "setting": "LD70, intraperitoneally 100 mg/kg/day, day 5", "result": "+15%"}, {"measurement": "Percent body weight change in days post infection", "setting": "LD70, intraperitoneally 100 mg/kg/day, day 7", "result": "+18%"}, {"measurement": "Percent body weight change in days post infection", "setting": "LD70, intraperitoneally 100 mg/kg/day, day 9", "result": "+25%"}, {"measurement": "Percent body weight change in days post infection", "setting": "LD70, intraperitoneally 100 mg/kg/day, day 11", "result": "+33%"}, {"measurement": "Percent body weight change in days post infection", "setting": "LD70, intraperitoneally 100 mg/kg/day, day 13", "result": "+41%"}, {"measurement": "Percent death protection (%)", "setting": "LD70, intraperitoneally 200 mg/kg/day", "result": 0, "unit": "%"}, {"measurement": "Percent body weight change in days post infection", "setting": "LD70, intraperitoneally 200 mg/kg/day, day 1", "result": "+7%"}, {"measurement": "Percent body weight change in days post infection", "setting": "LD70, intraperitoneally 200 mg/kg/day, day 2", "result": "+6%"}, {"measurement": "Percent body weight change in days post infection", "setting": "LD70, intraperitoneally 200 mg/kg/day, day 3", "result": "+5%"}, {"measurement": "Percent body weight change in days post infection", "setting": "LD70, intraperitoneally 200 mg/kg/day, day 4", "result": "−4", "unit": "%"}, {"measurement": "Percent body weight change in days post infection", "setting": "LD70, intraperitoneally 200 mg/kg/day, day 5", "result": "−3", "unit": "%"}, {"measurement": "Percent body weight change in days post infection", "setting": "LD70, intraperitoneally 200 mg/kg/day, day 7", "result": "−7", "unit": "%"}, {"measurement": "Percent body weight change in days post infection", "setting": "LD70, intraperitoneally 200 mg/kg/day, day 9", "result": "+4%"}, {"measurement": "Percent body weight change in days post infection", "setting": "LD70, intraperitoneally 200 mg/kg/day, day 11", "result": "+6%"}, {"measurement": "Percent body weight change in days post infection", "setting": "LD70, intraperitoneally 200 mg/kg/day, day 13", "result": "+15%"}, {"measurement": "Average lifetime (days)", "setting": "LD70, orally 100 mg/kg/day", "result": "13.1 (1-8 d., 1-10 d., 1-11 d.) days"}, {"measurement": "Percent death protection (%)", "setting": "LD70, orally 100 mg/kg/day", "result": 40, "unit": "%"}, {"measurement": "Percent body weight change in days post infection", "setting": "LD70, orally 100 mg/kg/day, day 1", "result": "+19%"}, {"measurement": "Percent body weight change in days post infection", "setting": "LD70, orally 100 mg/kg/day, day 2", "result": "+23%"}, {"measurement": "Percent body weight change in days post infection", "setting": "LD70, orally 100 mg/kg/day, day 3", "result": "+25%"}, {"measurement": "Percent body weight change in days post infection", "setting": "LD70, orally 100 mg/kg/day, day 4", "result": "+22%"}, {"measurement": "Percent body weight change in days post infection", "setting": "LD70, orally 100 mg/kg/day, day 5", "result": "+16%"}, {"measurement": "Percent body weight change in days post infection", "setting": "LD70, orally 100 mg/kg/day, day 7", "result": "+17%"}]}]}
